Source: patent US10413517B2, “Composition and method for the treatment of neurological diseases and cerebral injury” (UNIVERSITY OF NOTRE DAME DU LAC, priority 2014, dated 2019)

What was measured:
GFAP, MIP1α and CD68 = assay: qPCR of inflammatory markers in the brain; format: in vivo, mouse; settings: day 100, once weekly dosing
Description: (§1) Vorinostat (50 mg/Kg)—Vorinostat was first dissolved in DMSO (100 mg/ml) and then diluted with 9 volume of Polyethylene Glycol 400 (PEG). This drug solution was named as ‘solution A’. Solution A was diluted with equal volume of water where the final concentration of each component was as follows; Vorinostat, 5 mg/ml; DMSO, 5% and PEG, 45%. Mice were given weekly intraperitoneal (i.p) injections starting at 21 days. Vorinostat (100 mg/Kg)—Vorinostat was first dissolved in DMSO (200 mg/ml) and then mixed with 9 volumes of PEG. Rest of the methods and injections plan were as described above. HPBCD (4000 mg/Kg)—40% HPBCD solution prepared in water. Mice were given weekly i.p injections starting at 7 days. HPBCD (2000 mg/Kg)—20% HPBCD solution prepared in water. Mice were given weekly i.p injections starting at 7 days. TCF (Vorinostat, 50 mg/Kg+HPBCD, 2000 mg/Kg, DMSO, 5%+PEG, 45%)—To prepare the formulation, the ‘solution A’ was first prepared as described above and equal volume of 40% HPBCD solution was slowly layered on top of it. The solution was gently mixed for 10 min at RT on rocker set at medium speed. […]
(§2) Quantitative PCR (qPCR) was performed using Power SYBR Green RNA-to-CT 1-Step Kit and an ABI Prism 7500 Fast real-time PCR system (Applied Biosystems, Grand Island, USA). […] The relative amount of transcript was determined using comparative CT method. […]

Npc1 transcript = assay: qPCR of Npc1 transcript in liver; format: in vivo, mouse; settings: at 100 days
Description: as §1, §2

[1] = delivered systemically; cited from earlier work
Npc1^nmf164 fibroblasts = assay: Filipin staining of cholesterol in cultured mouse skin fibroblasts; format: cell-based; settings: 5 μM Vo for 48 hrs
Description: Ear pinna was cleaned with 70% alcohol and 2-3 small pieces (3×3 mm) were chopped and placed in 70% alcohol for 2 min and transferred to DMEM. Tissues were cut into small pieces and 2 ml of 0.25% trypsin were added, vigorously vortexed for 2 min and incubated at 37° C. with vortexing every 10 min. Trypsin was inactivated by adding 2 ml of culture media (DMEM+10%FBS). Cells were collected by spin (1000 rpm for 5 min), and were grown in DMEM+10% FBS in the presence penicillin (50 U/ml) and streptomycin (50 μg/ml). For treatment with vorinostat, fibroblasts (4×10^4) were plated in 24 well plate containing glass slide. Npc1^nmf164 fibroblasts were treated with 5 μM vorinostat for 48 hrs. Cells incubated with 0.025% DMSO served as vehicle control. Cells were fixed with 4% paraformaldehyde followed by incubation with filipin (100 μg/ml) to stain cholesterol. Slides were mounted using Vectashield (Vector laboratories) and processed for fluorescence microscopy.
(§3) Tissue sections after IFA and filipin stained fibroblasts were visualized with 40× oil-immersion objective lens (NA 1.35). […] Digital image collection were performed using an Olympus IX inverted fluorescence microscope and a Photometrix cooled CCD camera (CH350/LCCD) driven by DeltaVision software from Applied Precision (Seattle, Wash., USA). […] Images were analyzed using ImageJ software (NIH, MD, USA).

[2] = test system: CD68, ITGAX, MIP1α and CTSD; assay: qPCR of inflammatory markers in the liver; format: in vivo, mouse; settings: 100 days; Vo 50 mg/Kg; HPBCD 2000 mg/Kg; TCF
Description: as §1, §2

NPC1 protein = assay: NPC1 immunostaining of Purkinje cells in cerebellar sections; format: in vivo, mouse; settings: 100 days old mice
Description: Mice were sacrificed by asphyxiation using CO2. Harvested organs were immersed fixed in 10% neutral buffered formalin (˜4% formaldehyde) for 24 hrs at RT. The organs were subsequently stored in 70% alcohol at RT until transfer to paraffin. Paraffin-embedded tissue sections (4-5 μm) were dewaxed in xylene and alcohol. Calbindin antigen retrieval was done by pre-incubating deparaffinized samples with 0.05% proteinase K (Dako, Germany) in 50 mM Tris-HCl (pH 7.5) for 8 min at RT. CTSS and NPC1 was retrieved by boiling the sections in acidic condition for 30 min. Blocking was done either with 2% goat serum (for calbindin and NPC1) or 2% rabbit serum (for cathepsin S) for 30 min at RT. Sections were incubated with anti-calbindin (1:1000, C9848, Sigma), anti-cathepsin S (20 μg/ml, M-19, Santa Cruz Biotechnology), anti-NPC1 (custom made against human NPC1 protein, 20 μg/ml) overnight at 4° C. […] Vectashield (Vector laboratories) was used as mounting medium and processed for fluorescence microscopy.
as §3

[3] = cited from earlier work

CC(O)COC[C@H]1O[C@@H]2O[C@H]3[C@H](O)[C@@H](O)[C@@H](O[C@H]4[C@H](O)[C@@H](O)[C@@H](O[C@H]5[C@H](O)[C@@H](O)[C@@H](O[C@H]6[C@H](O)[C@@H](O)[C@@H](O[C@H]7[C@H](O)[C@@H](O)[C@@H](O[C@H]8[C@H](O)[C@@H](O)[C@@H](O[C@H]1[C@H](O)[C@H]2O)O[C@@H]8COCC(C)O)O[C@@H]7COCC(C)O)O[C@@H]6COCC(C)O)O[C@@H]5COCC(C)O)O[C@@H]4COCC(C)O)O[C@@H]3COCC(C)O (stereo partly drawn) [HPBCD, 2-Hydroxypropyl-β-cyclodextrin]
levels of inflammatory markers GFAP, MIP1α and CD68 in the brain (GFAP, MIP1α and CD68): reduced their levels comparably to TCF and better than Vo | Npc1 transcript levels in the liver (Npc1 transcript): no effect on target Npc1 expression | crossing of the blood brain barrier [1]: does not cross the blood brain barrier

O=C(CCCCCCC(=O)Nc1ccccc1)NO [vorinostat]
cholesterol levels in NPC fibroblasts (filipin) (Npc1^nmf164 fibroblasts): reduced | cholesterol levels in NPC fibroblasts (filipin) (Npc1^nmf164 fibroblasts; listed as Vorinostat): decreased cholesterol levels in NPC cells to those seen in fibroblasts from control | inflammatory markers in the liver [2]: significant anti-inflammatory activity | NPC1 staining in Purkinje cells (in words) (NPC1 protein): Slight staining of NPC1 | solubility in aqueous solution [3]: poorly soluble in aqueous solution
